Laboratory results as given in paper PMC9574927 (Journal of Medicinal Chemistry, 2022).

Legend:
[1] = mouse
[2] = in vivo; conditions: male, CD-1, mouse, po, 100 mg/kg
[3] = target: SARS-CoV-2 M^pro (Severe acute respiratory syndrome coronavirus 2, UniProt P0DTD1); type: biochemical

Compound	lung tissue Cmax ([1]; 25 mg/kg inhalative)	time of first appearance in plasma and urine post administration ([1]; 25 mg/kg inhalative) [min]	BALF concentrations at 5 h post administration (in words) ([1]; 100 mg/kg peroral, DOPS LUV formulation)	time up to which found in plasma and lung tissue ([1]; single inhalative dose 25 mg/kg)	CL/F [2] [mL/min/kg]	activity against Mpro in words [3]
CC(C)(C)OC(=O)Nc1cccn([C@@H](CC2CC2)C(=O)N[C@@H](C[C@@H]2CCNC2=O)C(=O)C(=O)NCc2ccccc2)c1=O [Compound 13b-K, tert-Butyl (1-((S)-1-(((S)-4-(Benzylamino)-3,4-dioxo-1-((S)-2-oxopyrrolidin-3-yl)butan-2-yl)amino)-3-cyclopropyl-1-oxopropan-2-yl)-2-oxo-1,2-dihydropyridin-3-yl)carbamate]	261,748 ± 1294.4 ng/g	≤ 15	in the same range as after inhalative administration of 25 mg/kg	up to 24 h	1160	
CC(C)(C)OC(=O)Nc1cccn([C@H](CC2CC2)C(=O)N[C@@H](C[C@@H]2CCNC2=O)C(=O)C(=O)NCc2ccccc2)c1=O [Compound 13b-H, tert-Butyl (1-((R)-1-(((S)-4-(Benzylamino)-3,4-dioxo-1-((S)-2-oxopyrrolidin-3-yl)butan-2-yl)amino)-3-cyclopropyl-1-oxopropan-2-yl)-2-oxo-1,2-dihydropyridin-3-yl)carbamate]						nearly inactive
